Data: patent US20260219274A1, “POLYOL SWEETNERS AND CARDIOVASCULAR AND THROMBOTIC EVENT RISK” (THE CLEVELAND CLINIC FOUNDATION, priority 2023, published 2026)

Legend:
C57BL/6J mice = assay: Carotid artery FeCl3 injury thrombosis model; assay type: in vivo; details: for rate of clot / thrombus formation / time to cessation of blood flow following arterial injury: 25 mg/kg i.p. vs vehicle (saline)
Description: Mice were used to causally test whether elevation in xylitol plasma levels results in enhancement in thrombosis potential. All mice were C57BL/6J and 12-14 weeks of age. All animal studies were approved by the Institutional Animal Care and Use Committee at the Cleveland Clinic (IRB 2019-2251).
The FeCl3-induced carotid artery injury model was performed using intravital fluorescence microscopy with continuous image capture monitoring, as previously described.^44 Time to cessation of blood flow through thrombus formation for all experiments was determined by visual inspection by two independent investigators.
The FeCl3-induced carotid artery injury model was performed as previously described.^9 BL/6J mice, both male and female, 12-14 weeks of age, were i.p. injected with vehicle (saline) or xylitol (25 mg/kg). The animals were anesthetized with 100 mg/kg ketamine+10 mg/kg xylazine and rhodamine 6G (100 μL; 0.5 mg/mL, catalogue #252433, Sigma, St. Louis, MO, USA) was injected into the right jugular vein for platelet labeling. The left carotid artery was then exposed, and an injury induced using a 1 mm^2 Whatman filter paper containing 10% FeCl3 (Catalogue #157740, Sigma, St. Louis, MO, USA) for 1 min. Thrombus formation in real time was monitored using intravital fluorescence microscopy equipped with video recording. Time to cessation of blood flow through thrombus formation for all experiments was determined by visual inspection by two independent investigators and animals were immediately euthanized after data acquisition.
The common carotid artery FeCl3 induced injury model was performed as previously described^54. 12-14 weeks old BL/6J mice were injected with vehicle (normal saline), erythritol (25 mg/kg) or 1,5-AHG (25 mg/kg) and anesthetized with 100 mg/kg ketamine+10 mg/kg xylazine. Rhodamine 6G (100 μL; 0.5 mg/mL, catalogue #252433, Sigma, St. Louis, MO, USA) was injected into the right jugular vein to label platelets. The left carotid artery was then injured with a Whatman filter paper of 1 mm^2 size containing 10% FeCl3 (Catalogue #157740, Sigma, St. Louis, MO, USA) for 1 min. Intravital fluorescence microscopy equipped with video recording was used to monitor thrombus formation in real time. Time to cessation of blood flow through clot formation for all studies was determined by visual inspection of captured video by two independent investigators in real time. Data for the in vivo thrombosis were collected by Streampix 7—Multiple Camera DVR Software (NorPix Inc, Montreal, Canada). Animals were immediately euthanized after data acquisition.

[1] = parameters: species or system mice; details: mouse, in vivo
Description: FIG. 11. […] Mice were gavaged with roughly molar equivalent levels of either xylitol alone (500 mg/kg in water) or erythritol alone (400 mg/kg), or both compounds (500 mg/kg xylitol and 400 mg/kg erythritol). Time-dependent changes in levels of xylitol and erythritol were quantified using LC-MS/MS in plasma (Panel A), urine (Panel B), and feces (Panel C) for the three groups of mice. At baseline, both xylitol and erythritol are present in mouse plasma at low levels (0.5-1.0 μM). […] Reported is content of xylitol and erythritol per ug of wet feces.
Stable-isotope-dilution LC-MS/MS was developed to specifically quantify xylitol in human and mouse plasma, urine and feces (fecal pellets were dissolved in water and supernatant subjected to LC-MS/MS). Ice cold methanol (800 μL) and internal standard (^13C2-arabitol) were added to the plasma samples (20 μL) or urine (20 μL) previously diluted in MQ water, followed by vortexing and centrifuging (21,000×g; 4° C. for 15 min). The clear supernatant (800 μL) was transferred into a clean, labeled glass tubes (Borosilicate glass 12×75 mm) and dried in a speed vacuum concentrator (Speed vac plus, SC210, Thermo Sevant). Acetylation was used since xylitol is poorly ionizable in order to achieve better retention on the reverse phase column and separation from other structural isomers as well as better ionization to achieve better sensitivity. The dry residue was reconstituted in acetic anhydride (100 μL) and 4-Dimethylaminopyridine (DMAP) in pyridine (100 μl; 1 mg/mL), sealed with safety caps, vortexed and heated (45 min at 80° C.) followed with drying under nitrogen. Dried residues were dissolved in HCl in water (0.1 M; 0.5 mL) and extracted with ethylacetate (2.0 mL). Ethylacetate layer was transferred into a clean glass tube (Borosilicate glass 12×75 mm) and dried under nitrogen. The dry residue was reconstituted in ammonium formate in a mixture of methanol:water (100 μL; 50:50 v/v with 10 mM ammonium formate), tubes were vortexed and liquid was transferred to glass vials with micro-insets and caped. LC-MS/MS analysis was performed on a chromatographic system consisting of two Shimadzu LC-30 AD pumps (Nexcra X2), a CTO 20AC oven operating at 30° C., and a SIL-30 AC-MP autosampler in tandem with a triple quadruple mass spectrometer (8050 series, Shimadzu Scientific Instruments, Inc., Columbia, MD, USA). For chromatographic separation, a Kinetex C18 column (50 mm×2.1 mm; 2.6 μm) (Cat #00B-4462-AN, Phenomenex, Torrance, CA) was used. […] Accuracy and precision of the method to quantify xylitol (separated from its structural isomers arabitol and ribitol) were assessed by a standard addition method of pure synthetic standard into different plasma pools. The accuracy of xylitol measurement was determined by the method of standard additions^12 using three different plasma pools, and was 2.4-2.8%. Intra- and inter-day coefficients of variation (CVs), measured by multiple analysis of three different control samples, were 1.2-8.9% and 10.9-11.5%, respectively. Freeze/thaw stability was determined over the five cycles and it was less than 7% for xylitol. The limit of quantification (LOQ) was defined (by convention) as the level at which xylitol was measured within the matrix (plasma) with a peak having signal-to-noise-ratio of 10:1. Limit of detection (LOD) was determined to be the lowest concentration of xylitol in the sample with a signal-to-noise ratio ≥3. […]

Question: With `OC[C@@H](O)[C@@H](O)CO` [erythritol] as the compound, how does the “rate of clot / thrombus formation” value (C57BL/6J mice) read?
Answer: marked enhancement

Question: What about the “time to cessation of blood flow following arterial injury” value (C57BL/6J mice) of the same compound?
Answer: significant reduction

Question: What about the baseline plasma level [1] of the same compound?
Answer: 0.5 to 1.0 µM

Question: And the “oral absorption in mice” value ([1]; po)?
Answer: rapidly absorbed

Question: Which “rate of clot / thrombus formation” value (C57BL/6J mice) does the source give for `OC[C@@H](O)[C@H](O)[C@@H](O)CO` [xylitol] here?
Answer: marked increase

Question: And the “time to cessation of blood flow following arterial injury” value (C57BL/6J mice)?
Answer: significant reduction

Question: What about the “plasma xylitol level at which heightened thrombosis potential was observed” value (C57BL/6J mice; animal model of thrombosis (FIG. 4B)) of the same compound?
Answer: 19 µM

Question: And the baseline plasma level [1]?
Answer: 0.5 to 1.0 µM

Question: And the “postprandial increase in urine” value [1]?
Answer: Significant xylitol increases also were not observed

Question: And the recovery in feces [1]?
Answer: the majority of xylitol is recovered in feces
